Experimental data taken from patent US7862842B2, “Use of cationic preservative in food products” (priority 2001, dated 2011).

What was measured:
[1] = test system: Arthrobacter oxydans ATCC 8010; test: minimum inhibitory concentration of LAE; assay type: cell-based; settings: Gram + Bacteria
[2] = test system: Bacillus cereus var mycoide ATCC 11778; test: minimum inhibitory concentration of LAE; assay type: cell-based; settings: Gram + Bacteria
[3] = test system: Bacillus subtilis ATCC 6633; test: minimum inhibitory concentration of LAE; assay type: cell-based; settings: Gram + Bacteria
[4] = test system: Clostridium perfringens ATCC 77454; assay type: cell-based; settings: Gram + Bacteria
[5] = test system: Listeria monocytogenes ATCC 7644; test: minimum inhibitory concentration of LAE; assay type: cell-based; settings: Gram + Bacteria
[6] = test system: Staphylococcus aureus ATCC 6538; test: minimum inhibitory concentration of LAE; assay type: cell-based; settings: Gram + Bacteria
[7] = test system: Micrococcus luteus ATCC 9631; test: minimum inhibitory concentration of LAE; assay type: cell-based; settings: Gram + Bacteria
[8] = test system: Lactobacillus delbrueckii ssp lactis CECT 372; test: minimum inhibitory concentration of LAE; assay type: cell-based; settings: Gram + Bacteria
[9] = test system: Leuconostoc mesenteroides CETC 912; test: minimum inhibitory concentration of LAE; assay type: cell-based; settings: Gram + Bacteria
[10] = test system: Alcaligenes faecalis ATCC 8750; test: minimum inhibitory concentration of LAE; assay type: cell-based; settings: Gram − Bacteria
[11] = test system: Bordetella bronchiseptica ATCC 4617; test: minimum inhibitory concentration of LAE; assay type: cell-based; settings: Gram − Bacteria
[12] = test system: Citrobacter freundii ATCC 22636; test: minimum inhibitory concentration of LAE; assay type: cell-based; settings: Gram − Bacteria
[13] = test system: Enterobacter aerogenes CECT 689; test: minimum inhibitory concentration of LAE; assay type: cell-based; settings: Gram − Bacteria
[14] = test system: Escherichia coli ATCC 8739; test: minimum inhibitory concentration of LAE; assay type: cell-based; settings: Gram − Bacteria
Escherichia coli 0157H7 = test: minimum inhibitory concentration of LAE; assay type: cell-based; settings: Gram − Bacteria
[15] = test system: Klebsiella pneumoniae var pneumoniae CECT 178; test: minimum inhibitory concentration of LAE; assay type: cell-based; settings: Gram − Bacteria
[16] = test system: Proteus mirabilis CECT 170; test: minimum inhibitory concentration of LAE; assay type: cell-based; settings: Gram − Bacteria
[17] = test system: Pseudomonas aeruginosa ATCC 9027; test: minimum inhibitory concentration of LAE; assay type: cell-based; settings: Gram − Bacteria
[18] = test system: Salmonella typhimurium ATCC 16028; test: minimum inhibitory concentration of LAE; assay type: cell-based; settings: Gram − Bacteria
[19] = test system: Serratia marcenses CECT 274; test: minimum inhibitory concentration of LAE; assay type: cell-based; settings: Gram − Bacteria
[20] = test system: Mycobacterium phlei ATCC 41423; test: minimum inhibitory concentration of LAE; assay type: cell-based; settings: listed under Gram − Bacteria
[21] = test system: Aspergillus niger ATCC14604; test: minimum inhibitory concentration of LAE; assay type: cell-based; settings: Fungi
[22] = test system: Aureobasidium pullulans ATCC 9348; test: minimum inhibitory concentration of LAE; assay type: cell-based; settings: Fungi
[23] = test system: Gliocadium virens ATCC 4645; test: minimum inhibitory concentration of LAE; assay type: cell-based; settings: Fungi
[24] = test system: Chaetonium globosum ATCC 6205; test: minimum inhibitory concentration of LAE; assay type: cell-based; settings: Fungi
[25] = test system: Penicillium chrysogenum CECT 2802; test: minimum inhibitory concentration of LAE; assay type: cell-based; settings: Fungi
[26] = test system: Penicillium funiculosum CECT 2914; test: minimum inhibitory concentration of LAE; assay type: cell-based; settings: Fungi
[27] = test system: Candida albicans ATCC 10231; test: minimum inhibitory concentration of LAE; assay type: cell-based; settings: Yeast
[28] = test system: Rhodotorula rubra CECT 1158; test: minimum inhibitory concentration of LAE; assay type: cell-based; settings: Yeast
[29] = test system: Saccharomyces cerevisiae ATCC 9763; test: minimum inhibitory concentration of LAE; assay type: cell-based; settings: Yeast
Aerobe Bacteria [30] = test: microbiological evolution in semi-preserved codfish in oil; assay type: cell-based; settings: LAE 100 ppm, 4° C.
Description: (§1) The determination of the microbiological population is carried out according to the ISO standards.
(§2) The samples are treated by dilution in buffer peptone with the appropriate neutralising agent of the preservative. The culture media used for counting the microorganisms are: Soya triptone agar (32-35° C., 48 hours) for the determination of mesophilic bacteria; Sabouraud agar with chloramfenicol (25° C., 3-5 days) for fungi and yeast; Violet red bile glucose agar (32-35° C., 24 hours) for enterobacteria; Soya triptone agar (17° C., 5 days) for psychrotrophic bacteria.
(§3) The sample LAE was added to the oil assayed at a concentration of 100 ppm and its microbiological evolution at 4° C. was compared against a control.

Mould & yeast [31] = test: as above; assay type: cell-based; settings: LAE 100 ppm, 4° C.
Description: as §1, §2, §3

Aerobe Bacteria [32] = test: evolution of bacteria in a chicken product; assay type: cell-based; settings: LAE 150 ppm, 10° C.
Description: as §1, §2
(§4) The sample LAE was added to at a concentration of 150 ppm and the evolution of aerobe and psychrotrophic bacteria at 10° C. was compared against a control.

Psychro. Bacteria = test: evolution of bacteria in a chicken product; assay type: cell-based; settings: LAE 150 ppm, 10° C.
Description: as §1, §2, §4

Aerobe Bacteria [33] = test: microbiological evolution in a carbonated orange beverage; assay type: cell-based; settings: LAE 100 ppm, 17° C.
Description: as §1, §2
(§5) The sample LAE was added to at a concentration of 100 ppm and its microbiological evolution at 17° C. was compared against a control.

Mould & yeast [34] = test: as above; assay type: cell-based; settings: LAE 100 ppm, 17° C.
Description: as §1, §2, §5

Aerobe Bacteria [35] = test: microbiological evolution in a blackberry juice; assay type: cell-based; settings: LAE 60 ppm, 34° C.
Description: as §1, §2
(§6) The sample LAE was added to at a concentration of 60 ppm and its microbiological evolution at 34° C. was compared against a control.

Mould & yeast [36] = test: microbiological evolution in a blackberry juice; assay type: cell-based; settings: LAE 60 ppm, 34° C.
Description: as §1, §2, §6

Aerobe Bacteria [37] = test: microbiological evolution in custard; assay type: cell-based; settings: LAE 100 ppm, 25° C.
Description: as §1, §2
(§7) The sample LAE was added to at a concentration of 100 ppm and its microbiological evolution at 25° C. was compared against a control.

Anaerobe Bacteria = test: microbiological evolution in custard; assay type: cell-based; settings: LAE 100 ppm, 25° C.
Description: as §1, §2, §7

Aerobe Bacteria [38] = test: microbiological evolution in fairy cakes; assay type: cell-based; settings: LAE 80 ppm, 25° C.
Description: as §1, §2
(§8) The sample LAE was added to at a concentration of 80 ppm and its microbiological evolution at 25° C. was compared against a control.

Mould & yeast [39] = test: microbiological evolution in fairy cakes; assay type: cell-based; settings: LAE 80 ppm, 25° C.
Description: as §1, §2, §8

Aerobe Bacteria [40] = test: microbiological evolution in veal stew; assay type: cell-based; settings: LAE 100 ppm, 10° C.
Description: as §1, §2
(§9) The sample LAE was added to at a concentration of 100 ppm and its microbiological evolution at 10° C. was compared against a control.

Enterobacteria [41] = test: microbiological evolution in veal stew; assay type: cell-based; settings: LAE 100 ppm, 10° C.
Description: as §1, §2, §9

Mould & yeast [42] = test: microbiological evolution in veal stew; assay type: cell-based; settings: LAE 100 ppm, 10° C.
Description: as §1, §2, §9

Aerobe Bacteria [43] = test: microbiological evolution in ketchup; assay type: cell-based; settings: LAE 100 ppm, 25° C.
Description: as §1, §2, §7

Enterobacteria [44] = test: microbiological evolution in ketchup; assay type: cell-based; settings: LAE 100 ppm, 25° C.
Description: as §1, §2, §7

Mould & yeast [45] = test: microbiological evolution in ketchup; assay type: cell-based; settings: LAE 100 ppm, 25° C.
Description: as §1, §2, §7

metabolism in rats = assay type: in vivo
toxicological studies = assay type: in vivo; settings: animals and humans

## CCCCCCCCCCCC(=O)N[C@@H](CCCN=C(N)N)C(=O)OCC.Cl [LAE, ethyl ester of the lauramide of the arginine monohydrochloride]
[1]
  M.I.C.: 64 ppm
[2]
  M.I.C.: 32 ppm
[3]
  M.I.C.: 16 ppm
[4]
  M.I.C.: 16 ppm
[5]
  M.I.C.: 10 ppm
[6]
  M.I.C.: 32 ppm
[7]
  M.I.C.: 128 ppm
[8]
  M.I.C.: 16 ppm
[9]
  M.I.C.: 32 ppm
[10]
  M.I.C.: 64 ppm
[11]
  M.I.C.: 128 ppm
[12]
  M.I.C.: 64 ppm
[13]
  M.I.C.: 32 ppm
[14]
  M.I.C.: 32 ppm
Escherichia coli 0157H7
  M.I.C.: 20 ppm
[15]
  M.I.C.: 32 ppm
[16]
  M.I.C.: 32 ppm
[17]
  M.I.C.: 64 ppm
[18]
  M.I.C.: 32 ppm
[19]
  M.I.C.: 32 ppm
[20]
  M.I.C.: 2 ppm
[21]
  M.I.C.: 32 ppm
[22]
  M.I.C.: 16 ppm
[23]
  M.I.C.: 32 ppm
[24]
  M.I.C.: 16 ppm
[25]
  M.I.C.: 128 ppm
[26]
  M.I.C.: 16 ppm
[27]
  M.I.C.: 16 ppm
[28]
  M.I.C.: 16 ppm
[29]
  M.I.C.: 32 ppm
Aerobe Bacteria [30]; 0 days
  Aerobe Bacteria count: 7.6 · 10^3 cfu/g
Aerobe Bacteria [30]; 14 days
  Aerobe Bacteria count: 1.0 · 10^4 cfu/g
Aerobe Bacteria [30]; 43 days
  Aerobe Bacteria count: 8.5 · 10^4 cfu/g
Mould & yeast [31]; 0 days
  Mould & yeast count: 3.0 · 10^2 cfu/g
Mould & yeast [31]; 14 days
  Mould & yeast count: 5.4 · 10^3 cfu/g
Mould & yeast [31]; 43 days
  Mould & yeast count: 8.2 · 10^3 cfu/g
Aerobe Bacteria [32]; 0 days
  Aerobe Bacteria count: 1.2 · 10^5 cfu/g
Aerobe Bacteria [32]; 14 days
  Aerobe Bacteria count: 4.2 · 10^5 cfu/g
Aerobe Bacteria [32]; 43 days
  Aerobe Bacteria count: 6.1 · 10^5 cfu/g
Psychro. Bacteria; 0 days
  Psychro. Bacteria count: 3.0 · 10^4 cfu/g
Psychro. Bacteria; 14 days
  Psychro. Bacteria count: 7.1 · 10^4 cfu/g
Psychro. Bacteria; 43 days
  Psychro. Bacteria count: 6.8 · 10^4 cfu/g
Aerobe Bacteria [33]; 0 days
  Aerobe Bacteria count: 4.3 · 10^2 cfu/g
Aerobe Bacteria [33]; 14 days
  Aerobe Bacteria count: 1.0 · 10^2 cfu/g
Mould & yeast [34]; 0 days
  Mould & yeast count: <10 cfu/g
Mould & yeast [34]; 14 days
  Mould & yeast count: <10 cfu/g
Aerobe Bacteria [35]; 0 days
  Aerobe Bacteria count: 4.0 · 10^2 cfu/g
Aerobe Bacteria [35]; 14 days
  Aerobe Bacteria count: 2.4 · 10^3 cfu/g
Mould & yeast [36]; 0 days
  Mould & yeast count: <10 cfu/g
Mould & yeast [36]; 14 days
  Mould & yeast count: <10 cfu/g
Aerobe Bacteria [37]; 0 days
  Aerobe Bacteria count: <10 cfu/g
Aerobe Bacteria [37]; 5 days
  Aerobe Bacteria count: 1.1 · 10^3 cfu/g
Anaerobe Bacteria; 0 days
  Anaerobe Bacteria count: <10 cfu/g
Anaerobe Bacteria; 5 days
  Anaerobe Bacteria count: 4.1 · 10^2 cfu/g
Aerobe Bacteria [38]; 0 months
  Aerobe Bacteria count: <10 cfu/g
Aerobe Bacteria [38]; 3 months
  Aerobe Bacteria count: 1.1 · 10^2 cfu/g
Mould & yeast [39]; 0 months
  Mould & yeast count: <10 cfu/g
Mould & yeast [39]; 3 months
  Mould & yeast count: <10 cfu/g
Aerobe Bacteria [40]; 0 days
  Aerobe Bacteria count: <10 cfu/g
Aerobe Bacteria [40]; 14 days
  Aerobe Bacteria count: <10 cfu/g
Enterobacteria [41]; 0 days
  Enterobacteria count: <10 cfu/g
Enterobacteria [41]; 14 days
  Enterobacteria count: <10 cfu/g
Mould & yeast [42]; 0 days
  Mould & yeast count: <10 cfu/g
Mould & yeast [42]; 14 days
  Mould & yeast count: <10 cfu/g
Aerobe Bacteria [43]; 0 days
  Aerobe Bacteria count: <10 cfu/g
Aerobe Bacteria [43]; 14 days
  Aerobe Bacteria count: 2.2 · 10^3 cfu/g
Enterobacteria [44]; 0 days
  Enterobacteria count: <10 cfu/g
Enterobacteria [44]; 14 days
  Enterobacteria count: <10 cfu/g
Mould & yeast [45]; 0 days
  Mould & yeast count: <10 cfu/g
Mould & yeast [45]; 14 days
  Mould & yeast count: 1.4 · 10^1 cfu/g
Metabolism in rats
  absorption and metabolism: fast absorption and metabolisation into naturally-occurring amino acids and the fatty acid lauric acid
Toxicological studies
  toxicity: completely harmless to animals and humans
